Measurements from the CheMixHub ionic liquid set.

Assay: xn = mol fraction of the nth substance listed
Conditions: 100 kPa

N[C@@H](Cc1c[nH]cn1)C(=O)O + CCCC[n+]1ccn(C)c1.F[B-](F)(F)F + O
viscosity [mPa·s]
Conditions	308.15 K	313.15 K	318.15 K
x1 = 0.0002714, x2 = 0.0003602	0.759	0.701	0.646
x1 = 0.0002725, x2 = 0.0007201	0.797	0.744	0.689
x1 = 0.0002736, x2 = 0.00108	0.838	0.787	0.733
x1 = 0.0004522, x2 = 0.0003601	0.761	0.703	0.648
x1 = 0.000454, x2 = 0.00072	0.8	0.747	0.692
x1 = 0.0004559, x2 = 0.00108	0.841	0.79	0.736
x1 = 0.0006329, x2 = 0.00036	0.764	0.706	0.651
x1 = 0.0006355, x2 = 0.0007198	0.803	0.75	0.695
x1 = 0.0006382, x2 = 0.001079	0.844	0.793	0.739
x1 = 0.0008136, x2 = 0.00036	0.767	0.709	0.654
x1 = 0.000817, x2 = 0.0007197	0.806	0.753	0.698
x1 = 0.0008203, x2 = 0.001079	0.847	0.796	0.742
x1 = 0.0009942, x2 = 0.0003599	0.77	0.712	0.657
x1 = 0.0009983, x2 = 0.0007196	0.809	0.755	0.7
x1 = 0.001002, x2 = 0.001079	0.849	0.799	0.745
x1 = 0.001175, x2 = 0.0003598	0.772	0.714	0.659
x1 = 0.00118, x2 = 0.0007194	0.811	0.758	0.703
x1 = 0.001185, x2 = 0.001079	0.852	0.802	0.748
x1 = 0.001355, x2 = 0.0003598	0.775	0.716	0.661
x1 = 0.001361, x2 = 0.0007193	0.814	0.76	0.705
x1 = 0.001366, x2 = 0.001079	0.855	0.804	0.75
x1 = 0.001536, x2 = 0.0003597	0.777	0.719	0.663
x1 = 0.001542, x2 = 0.0007192	0.816	0.763	0.707
x1 = 0.001548, x2 = 0.001078	0.857	0.806	0.752
x1 = 0.001716, x2 = 0.0003596	0.779	0.721	0.666
x1 = 0.001723, x2 = 0.000719	0.818	0.765	0.71
x1 = 0.00173, x2 = 0.001078	0.86	0.808	0.753
